The text below walks through data of patent US4191760A, “Dibenzodiazepines” (Abbott Laboratories, priority 1978, dated 1980).

As a reminder, the ED50 is the dose at which the effect has come halfway, by size or by number of responders.

Assay [1] relates to Methamphetamine induced hyperactivity. As to the kind of experiment: Antagonism of Methamphetamine induced hyperactivity in rats. In kind it is in vivo, Male Long-Evans black hooded rats. The conditions noted are these: one hour prior to Methamphetamine 1 mg./kg. intraperitoneal; for ED50: Rattus norvegicus, oral, activity counts at one and two hour intervals, read with sign (+)/(-); for potentiation (+) or antagonism (-) of Methamphetamine: oral 5, 20 and 80 mg./kg., sign printed beside the oral ED50. On the procedure:
Effectiveness of Drug Compound on Inhibiting Methamphetamine Antagonism in Rats
Male Long-Evans black hooded rats, weighing between 100 and 150 grams, were administered the test drugs at oral doses of 5, 20 and 80 mg./kg. one hour prior to the administration of Methamphetamine at an intraperitoneal dose of 1 mg./kg. Three animals were tested at each dose level. […] Antagonism of Methamphetamine induced hyperactivity was recorded as digital counts received from the photocells at one and two hour intervals. Placebo controls received a volume dose of the 0.5 carboxymethylcellulose vehicle. The data were evaluated by a one-way analysis of variance computer program.
In the results, a (+) indicates a potentiation of Metamphetamine and a (-) is antagonism of Metamphetamine.

Assay [2] concerns brain homovanillic acid (HVA). The experiment in a line: Effect of Drug Compounds on Brain Level of Homovanillic Acid (HVA). In kind it is in vivo, male Long Evans rats. As to conditions: brain HVA as ratio to control group (control 1.0); 0.15 mmoles/kg intraperitoneally; brains minus cerebella two or three hours later; ratios greater than 1.6 of practical significance. On the procedure:
Effect of Drug Compounds on Brain Level of Homovanillic Acid (HVA)
In testing for the effectiveness of the present drug compounds on the brain level of homovanillic acid (HVA), the drugs were administered intraperitoneally to male Long Evans rats (Simonsen) usually as aqueous solutions but in certain cases as suspensions in 0.5% methocel in 0.9% saline. The standard testing dose was 0.15 mmoles/kg body weight. The test and control groups consisted of 3-5 and 5 animals, respectively. The analyses were performed on brains (minus cerebella) removed two or three hours later. In the analyses, standard extraction and fluorimetric methods were used.

As to `O=CN1CCCN(C2=Nc3cc(Cl)ccc3Nc3ccccc32)CC1` [XI, 8-Chloro-11-(4-formyl-1-homopiperazinyl)-5H-dibenzo[b,e][1,4]diazepine], in assay [1], the ED50 turned out to be 80 mg/kg and the “potentiation (+) or antagonism (-) of Methamphetamine” value (shortened to “potentiation (+) or antagonism (-)”) is reported as “+”. Moreover, the “HVA Ratio” value in assay [2] is reported as 1.0.
As for `Clc1ccc2c(c1)N=C(N1CCCN(CC3CC3)CC1)c1ccccc1N2` [XII, 8-Chloro-11-(4-cyclopropylmethyl-1-homopiperazine)-5H-dibenzo[b,e][1,4]diazepine], in assay [1], the ED50 stood at 80 mg/kg and the “potentiation (+) or antagonism (-)” value was “+”. Moreover, in assay [2], the “HVA Ratio” value is 0.9.
For `C#CCN1CCN(C2=Nc3cc(Cl)ccc3Nc3ccccc32)CC1` [VIII, 8-Chloro-11-(4-propargyl-1-piperazinyl)-5H-dibenzo[b,e][1,4]diazepine], in that order: 5 mg/kg, “+” and 0.9.
On the same counts, the results for `Clc1ccc2c(c1)N=C(N1CCN(C3CC3)CC1)c1ccccc1N2` [VII, 8-Chloro-11-(4-cyclopropyl-1-piperazinyl)-5H-dibenzo[b,e][1,4]diazepine] are 60 mg/kg, “-” and 1.1.
Take `Clc1ccc2c(c1)N=C(N1CCN(CC3CC3)CC1)c1ccccc1N2` [VI, 8-Chloro-11-(4-cyclopropylmethyl-piperazinyl)-5H-dibenzo[b,e][1,4]diazepine]: in assay [1], the ED50 is 80 mg/kg and the “potentiation (+) or antagonism (-)” value is “+”. In addition, the “HVA Ratio” value in assay [2] is given as 3.4.
For `Clc1ccc2c(c1)N=C(N1CCCN(C3CC3)CC1)c1ccccc1N2` [IX, 8-Chloro-11-(4-cyclopropyl-1-homopiperazinyl)-5H-dibenzo[b,e][1,4]diazepine], in that order: 5 mg/kg, “+” and 0.9.
For `CN1CCCN(C2=Nc3cc(Cl)ccc3Nc3ccccc32)CC1` [X, 8-Chloro-11-(4-methyl-1-homopiperazinyl)-5H-dibenzo[b,e][1,4]diazepine], in that order: 9 mg/kg, “+” and 1.0.
